Test results reported in PMC7419559 (Scientific Reports, 2020).
Read-outs that look alike come from different tables or passages of the source.

What was measured:
[1] = target: T1, rat isoform of H3R (rH3R) (Rattus norvegicus, UniProt Q9QYN8); experiment: CRE-Luc reporter gene Schild assay at rH3R in HEK-293T cells; type: cell-based
T1 construct: expressed in transfected cells; host or cells: HEK-293T
Experimental: The mixture was incubated for 5 h under culture conditions. […] Lysed homogenate was transferred into white microplates. […] For experiments employing radiolabeled ligands, raw data that were measured as counts-per-minute [c.p.m.] were reduced by non-specific binding. […] Data were stated as means ± s.d. […] Data were stated as means ± s.d. with the indicated number of replicates.

[2] = target: T2, human isoform of histamine H3 receptor (hH3R) (Homo sapiens, UniProt Q9Y5N1); experiment: [3H]Nα-methylhistamine displacement at hH3R, membranes of transfected HEK-293T cells; type: binding
T2 construct: expressed in transfected cells; host or cells: HEK-293T
T2 sequence (Q9Y5N1 whole entry, canonical isoform): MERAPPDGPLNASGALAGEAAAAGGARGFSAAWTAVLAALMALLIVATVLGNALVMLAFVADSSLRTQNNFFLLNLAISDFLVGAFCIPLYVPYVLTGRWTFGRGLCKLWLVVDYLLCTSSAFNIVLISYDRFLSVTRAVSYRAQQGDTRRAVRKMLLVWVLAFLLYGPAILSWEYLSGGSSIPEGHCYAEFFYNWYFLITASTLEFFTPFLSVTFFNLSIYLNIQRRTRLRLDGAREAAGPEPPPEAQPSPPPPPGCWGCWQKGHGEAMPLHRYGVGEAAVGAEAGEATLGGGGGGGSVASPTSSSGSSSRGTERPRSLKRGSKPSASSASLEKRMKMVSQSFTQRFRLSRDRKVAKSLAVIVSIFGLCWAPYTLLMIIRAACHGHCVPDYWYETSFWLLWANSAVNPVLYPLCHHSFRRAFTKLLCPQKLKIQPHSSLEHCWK
Experimental: NM_007232.3) was determined in radioligand displacement studies at membrane preparations of transfected HEK-293 T cells. […] The workflow to terminate incubation and measurement of bound radioligand was identical for both experimental set-ups. Briefly, samples were filtrated from microplates onto GF/B filters presoaked with 0.3% polyethyleneimine solution using a 96-well cell harvester. Filter mats were washed three times with water at 4 °C, dried for 60 min (54 °C), soaked with scintillation liquid (Betaplate Scint, PerkinElmer), sealed and subjected to scintillation counting. For experiments employing radiolabeled ligands, raw data that were measured as counts-per-minute [c.p.m.] were reduced by non-specific binding. For affinity measurements, such results were fitted to least-squares method “One site competition” of GraphPad Prism version 7.0 (La Jolla, CA, United States) and final values were calculated as means [95% confidence interval]. […] Data were stated as means ± s.d. […] Data were stated as means ± s.d. with the indicated number of replicates. […] Data from both experiments were globally fit to the “Gaddum/Schild EC50 shift” model of GraphPad Prism and were stated as means [95% confidence interval].

G9a = target: T3, G9a (Homo sapiens, UniProt Q96KQ7); experiment: AlphaLISA based G9a methyltransferase inhibition screening (H3K9 dimethylation); type: biochemical
T3 construct: purchased Sigma-Aldrich
T3 sequence (Q96KQ7 1-1210): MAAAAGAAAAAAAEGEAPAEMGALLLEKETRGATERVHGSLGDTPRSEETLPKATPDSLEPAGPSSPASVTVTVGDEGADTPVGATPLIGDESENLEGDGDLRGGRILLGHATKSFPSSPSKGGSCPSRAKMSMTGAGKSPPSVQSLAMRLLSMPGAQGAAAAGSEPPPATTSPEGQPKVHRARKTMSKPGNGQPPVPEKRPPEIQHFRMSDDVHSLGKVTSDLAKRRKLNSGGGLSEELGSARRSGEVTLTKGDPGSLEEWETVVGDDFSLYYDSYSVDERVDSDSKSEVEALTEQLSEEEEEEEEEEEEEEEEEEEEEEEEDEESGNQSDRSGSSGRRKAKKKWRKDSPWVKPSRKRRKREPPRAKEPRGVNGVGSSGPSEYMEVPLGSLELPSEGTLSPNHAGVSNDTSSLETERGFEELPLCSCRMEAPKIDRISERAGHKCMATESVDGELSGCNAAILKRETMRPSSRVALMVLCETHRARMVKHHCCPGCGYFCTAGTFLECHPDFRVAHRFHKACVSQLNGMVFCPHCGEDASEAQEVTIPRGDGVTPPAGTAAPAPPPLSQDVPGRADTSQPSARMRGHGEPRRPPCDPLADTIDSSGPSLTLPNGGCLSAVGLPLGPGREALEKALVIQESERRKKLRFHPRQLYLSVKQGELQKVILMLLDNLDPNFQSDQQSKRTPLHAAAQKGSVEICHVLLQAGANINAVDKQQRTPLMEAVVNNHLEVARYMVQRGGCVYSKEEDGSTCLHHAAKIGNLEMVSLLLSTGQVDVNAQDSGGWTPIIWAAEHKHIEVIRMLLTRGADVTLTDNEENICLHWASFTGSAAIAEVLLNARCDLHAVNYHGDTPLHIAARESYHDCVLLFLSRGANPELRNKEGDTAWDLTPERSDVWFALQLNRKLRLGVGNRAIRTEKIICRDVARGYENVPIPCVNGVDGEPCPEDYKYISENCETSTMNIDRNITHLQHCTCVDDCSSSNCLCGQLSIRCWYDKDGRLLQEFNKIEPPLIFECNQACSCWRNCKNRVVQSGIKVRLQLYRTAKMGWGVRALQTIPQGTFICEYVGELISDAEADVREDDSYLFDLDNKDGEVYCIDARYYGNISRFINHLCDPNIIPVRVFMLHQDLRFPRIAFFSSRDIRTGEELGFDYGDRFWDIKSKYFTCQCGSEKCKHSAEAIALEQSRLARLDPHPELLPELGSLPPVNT
Experimental: Inhibition of G9a was examined in an AlphaLISA based format with protocols provided by PerkinElmer. In brief, compounds were incubated for 30 min on white 384-well microplates at the indicated concentration and with 5 nM G9a (Supplementary Information, Figure S1), 100 nM histone H3 (1–21) fragment and 15 µM SAM in assay buffer (50 mM Tris–HCl (pH = 9.0); 50 mM NaCl, 1 mM dithiothreitol, 0.01% Tween-20). Incubation was terminated by addition of anti-H3K9me2 acceptor beads in provided detection buffer. After incubating the mixture for 60 min, streptavidin-coated donor beads were added to the mix for additional 30 min. Luminescence was then measured using the AlphaLISA luminescence filter of an Infinite M1000pro multiplate reader (Tecan, Maennedorf, Switzerland) for 1,000 ms (integration time).
For experiments employing radiolabeled ligands, raw data that were measured as counts-per-minute [c.p.m.] were reduced by non-specific binding. For affinity measurements, such results were fitted to least-squares method “One site competition” of GraphPad Prism version 7.0 (La Jolla, CA, United States) and final values were calculated as means [95% confidence interval]. […] Data were stated as means ± s.d. […] Data were stated as means ± s.d. with the indicated number of replicates. For CRE-Luc assays, data were normalized to luminescence derived by forskolin containing samples (= 100%) and minimum luminescence measured in samples containing forskolin + N^α-methylhistamine (10 µM) (= 0%). Data from both experiments were globally fit to the “Gaddum/Schild EC50 shift” model of GraphPad Prism and were stated as means [95% confidence interval].

Spindlin1 = Spindlin1 (Homo sapiens, UniProt Q9Y657); experiment: Spindlin1 inhibition, fluorescence polarization displacement assay; type: binding; conditions: for Spindlin1 inhibition: fluorescence polarization-based screening
Spindlin1, sequence (Q9Y657 whole entry, species assumed): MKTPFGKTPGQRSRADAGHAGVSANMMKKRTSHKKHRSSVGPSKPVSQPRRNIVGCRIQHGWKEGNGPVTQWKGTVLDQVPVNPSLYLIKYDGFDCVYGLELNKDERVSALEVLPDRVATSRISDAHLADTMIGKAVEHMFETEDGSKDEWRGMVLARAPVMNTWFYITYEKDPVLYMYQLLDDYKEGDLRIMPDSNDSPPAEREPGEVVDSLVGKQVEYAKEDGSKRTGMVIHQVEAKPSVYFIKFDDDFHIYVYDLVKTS
Experimental: Spindlin1 inhibition was determined using the fluorescence polarization displacement assay described by Wagner et al.[37] For the IC50 values, 12 concentrations were measured in triplicates.

T1 sequence (Q9QYN8 whole entry, canonical isoform): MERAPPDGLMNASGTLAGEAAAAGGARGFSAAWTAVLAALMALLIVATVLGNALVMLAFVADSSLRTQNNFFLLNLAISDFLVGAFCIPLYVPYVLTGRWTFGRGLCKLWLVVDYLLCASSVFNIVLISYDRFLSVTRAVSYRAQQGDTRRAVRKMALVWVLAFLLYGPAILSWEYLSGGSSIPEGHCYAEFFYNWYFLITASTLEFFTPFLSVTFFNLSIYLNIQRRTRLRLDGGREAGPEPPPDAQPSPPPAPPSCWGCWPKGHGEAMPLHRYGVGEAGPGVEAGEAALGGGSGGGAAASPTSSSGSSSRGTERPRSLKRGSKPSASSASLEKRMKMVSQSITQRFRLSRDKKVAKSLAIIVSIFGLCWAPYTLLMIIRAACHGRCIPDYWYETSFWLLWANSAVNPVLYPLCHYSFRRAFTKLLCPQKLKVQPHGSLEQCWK

SMILES | inhibition at 10 µM (G9a) [%] | Spindlin1 inhibition (Spindlin1) | other results
COc1cc2c(cc1OCCCN1CCCC1)N=C(N)C21CCC1 [A-366] | 100 ± 0.04 | – | Kb [1]: 15 nM; Schild-plot slope ([1]; rH3R, mean ± 95% confidence interval, not significantly different from unity): 0.79 ± 0.45; Ki ([2]; [3H]Nα-methylhistamine 2 nM, 90 min, mean [95% CI], read-out: hH3R affinity Ki [CI95%]): 17 nM
O=C(c1ccc(OCCCc2cnc[nH]2)cc1)C1CC1 [Ciproxifan] | – | No inhibition | –
Clc1ccc(CCCOCCCN2CCCCC2)cc1 [Pitolisant] | – | No inhibition | –
O=C(c1ccc(OCCCN2CCCCC2)cc1)C1CC1 [UCL-2190] | 13.9 ± 9.3 | No inhibition | –
COc1cc2c(NC3CCN(C(C)C)CC3)nc(N3CCC(F)(F)CC3)nc2cc1OCCCN1CCCC1 [UNC-0642] | 99.9 ± 0.09 | – | Ki [2]: 1.8 nM; IC50 (Spindlin1; fluorescence polarization, 12 concentrations in triplicates): 2700 nM
